Results as given in publication PMC8893300, “A Dynamic Mass Redistribution Assay for the Human Sweet Taste Receptor Uncovers G-Protein Dependent Biased Ligands” (Frontiers in Pharmacology, 2022).
Read-outs that look alike come from different tables or passages of the source. Marks after values point to notes of the source that are not given here. Residues, ends and D or L forms follow the SMILES beside them.

Key:
[1] = molecular target: T1, human sweet taste receptor (hT1R2/hT1R3) (Homo sapiens, UniProt Q7RTX0+Q8TE23); assay: DMR assay (Epic reader) on R2/R3 U2OS cells, endogenous G proteins; type: cell-based; details: for EC50: R2/R3 U2OS cells, peak DMR response; for ΔlogR DMR Mean: Table 2, operational model, logR minus sucralose logR; for Activity in DMR assay Emax: top asymptote of dose-response normalized to 1 mM sucralose
T1 construct: expressed in transfected cells
T1 sequence (Q8TE23 20-839): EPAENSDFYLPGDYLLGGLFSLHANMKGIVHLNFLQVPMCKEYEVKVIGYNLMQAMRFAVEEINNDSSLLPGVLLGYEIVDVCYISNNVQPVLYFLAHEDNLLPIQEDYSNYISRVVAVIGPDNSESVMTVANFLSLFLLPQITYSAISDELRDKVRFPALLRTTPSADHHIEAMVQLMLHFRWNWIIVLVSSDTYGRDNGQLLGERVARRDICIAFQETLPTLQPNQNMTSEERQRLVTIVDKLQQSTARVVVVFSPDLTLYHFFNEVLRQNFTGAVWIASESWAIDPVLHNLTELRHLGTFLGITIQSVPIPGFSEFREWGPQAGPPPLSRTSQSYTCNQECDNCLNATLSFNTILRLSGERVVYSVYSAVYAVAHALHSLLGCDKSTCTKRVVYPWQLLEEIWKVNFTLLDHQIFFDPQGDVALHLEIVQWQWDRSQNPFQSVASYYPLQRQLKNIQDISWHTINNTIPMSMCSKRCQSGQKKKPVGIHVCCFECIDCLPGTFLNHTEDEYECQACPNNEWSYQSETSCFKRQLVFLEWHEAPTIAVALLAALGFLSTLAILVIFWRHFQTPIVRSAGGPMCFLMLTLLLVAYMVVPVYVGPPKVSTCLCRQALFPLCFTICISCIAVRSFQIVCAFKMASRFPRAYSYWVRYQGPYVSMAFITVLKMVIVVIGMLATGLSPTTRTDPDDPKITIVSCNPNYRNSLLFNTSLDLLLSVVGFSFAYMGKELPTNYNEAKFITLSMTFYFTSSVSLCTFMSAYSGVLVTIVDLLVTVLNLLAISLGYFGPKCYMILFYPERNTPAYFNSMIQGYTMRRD
T1 sequence (Q7RTX0 21-852): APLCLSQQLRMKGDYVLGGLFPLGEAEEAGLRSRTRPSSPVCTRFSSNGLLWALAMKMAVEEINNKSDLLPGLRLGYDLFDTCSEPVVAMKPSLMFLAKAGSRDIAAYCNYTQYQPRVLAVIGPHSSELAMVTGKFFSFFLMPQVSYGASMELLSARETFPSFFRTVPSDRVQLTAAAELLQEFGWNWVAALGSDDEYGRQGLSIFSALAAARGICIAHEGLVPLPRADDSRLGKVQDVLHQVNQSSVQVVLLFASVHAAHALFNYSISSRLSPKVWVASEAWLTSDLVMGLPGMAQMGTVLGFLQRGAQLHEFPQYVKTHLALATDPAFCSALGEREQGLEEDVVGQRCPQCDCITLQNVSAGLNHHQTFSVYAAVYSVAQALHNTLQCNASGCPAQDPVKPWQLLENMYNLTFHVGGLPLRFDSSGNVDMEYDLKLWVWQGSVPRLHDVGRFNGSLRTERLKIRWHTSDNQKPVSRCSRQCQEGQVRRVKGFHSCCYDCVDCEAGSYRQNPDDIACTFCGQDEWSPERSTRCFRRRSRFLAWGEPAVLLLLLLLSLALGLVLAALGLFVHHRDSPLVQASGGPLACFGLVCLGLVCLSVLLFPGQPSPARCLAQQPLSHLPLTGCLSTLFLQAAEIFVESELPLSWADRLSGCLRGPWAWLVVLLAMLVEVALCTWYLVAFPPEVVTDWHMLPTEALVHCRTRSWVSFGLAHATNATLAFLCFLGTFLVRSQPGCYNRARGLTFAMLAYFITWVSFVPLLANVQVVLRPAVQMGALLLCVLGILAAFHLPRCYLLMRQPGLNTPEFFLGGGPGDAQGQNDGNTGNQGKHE
Procedure: The plates were incubated in the tissue culture hood for 20 min to allow cells to settle evenly at the bottom of the microplate and further cultured at 37°C in an atmosphere of 5% CO2 for 18–24 h. The next day, the cells were subjected to functional analysis using DMR. […] When indicated, data for agonist dose-responses were normalized to data obtained with a maximum concentration of sucralose (1 mM) and then fitted and plotted using GraphPad Prism (San Diego, CA) and non-linear regression analysis.
(§1) This value, that we termed pEC50Ratio (sucralose) or pEC50R (sucralose), was calculated with EC50 values obtained in the two assay systems. This transformation also allowed determination of an average and a standard error for the pEC50R (sucralose). The two sets of data (DMR and FLIPR data) were then analyzed with an un-paired t-test (α = 0.05). To calculate relative efficacy bias between the two assays, we captured the top asymptote value from each activity-normalized dose-response curve, as provided by the curve fit, calculated an average and a standard deviation (sd) for each agonist and then analyzed the data pairs with an un-paired t-test (α = 0.05). […] The following steps were followed: 1) Using the PRISM software, we re-analyzed each ligand’s dose-response data obtained in each assay with non-linear regression and the users-defined equation “New Operational Model with TauKa ratios” and retrieved logR values from the fits. 2) Subtracted each ligand’s logR value with that of our standard, the sucralose logR value, obtained from the same data set (each ligand dose-response assay data used in this analysis was accompanied with a sucralose dose-response ran on the same day), producing the ΔlogR value for leach ligand in each assay. 3) Calculated the mean and SEM from ΔlogR replicates (from three to nine independent dose-response analysis, in the two different assays). 4) Calculated ΔΔlogR values by subtracting the averaged ligands’ ΔlogR FLIPR values with the averaged ligands’ ΔlogR DMR values.

[2] = molecular target: T2, human sweet taste receptor (hT1R2/hT1R3) coupled to Gα15 (Homo sapiens, UniProt Q7RTX0+Q8TE23); assay: FLIPR calcium mobilization assay, R2/R3 U2OS cells transduced with Gα15 baculovirus; type: cell-based; details: for ΔlogR FLIPR Mean: FLIPR-Gα15, operational model, logR minus sucralose logR; for Activity in FLIPR assay Emax: top asymptote of dose-response normalized to 1 mM sucralose; for ΔΔlogR Mean: ΔlogR FLIPR-Gα15 minus ΔlogR DMR; for Bias factor: inverse log of ΔΔlogR, FLIPR-Gα15 vs DMR
T2 construct: expressed in transfected cells
T2 sequence (Q8TE23 20-839): T1 sequence (Q8TE23 20-839)
T2 sequence (Q7RTX0 21-852): T1 sequence (Q7RTX0 21-852)
Procedure: The Gα15 coding sequence was inserted in the HindIII-NotI sites and recombinant virus was generated using the Bac-to-Bac system (Life Technologies). Virus was further amplified by propagation in Sf9 cells grown in suspension using Sf900-II media. Virus titers were determined by plaque assay on Sf9 cells.
Cells were gently mixed with the virus at a multiplicity of infection (MOI) of 5. Using a multidrop, 70 μl per well of the cell and virus mixture was dispensed in a 384-well clear bottom plate (Fisher). After 24 h of incubation in a humidified 37°C tissue culture incubator, trichostatin A was added to a final concentration of 0.3 μM and the cells were incubated for another 18–24 h at 34°C. On the day of the experiment, cells were loaded with 4 μM of the calcium indicator Fluo-4 AM (Invitrogen) in D-PBS for 1 h at room temperature. After washing the cells with D-PBS using a cell washer (BioTek) and a 30-minute rest time, the cell plate and the compound plate were transferred into the FLIPR-Tetra (Molecular Devices). […] Loading and the FLIPR assay were run as described above. When indicated, data for agonist dose-responses were normalized to data obtained with a maximum concentration of sucralose (1 mM) and then fitted and plotted using GraphPad Prism (San Diego, CA) and non-linear regression analysis.
as §1

[3] = read-out: Activity in DMR assay EC50
[4] = read-out: Activity in DMR assay pEC50 (converted)
[5] = R2/R3 U2OS cells expressing Gα15, read-out: Activity in FLIPR assay EC50
[6] = R2/R3 U2OS cells expressing Gα15, read-out: Activity in FLIPR assay pEC50 (converted)
[7] = Activity in FLIPR assay EC50, R2/R3 U2OS cells expressing Gα15
[8] = Activity in FLIPR assay pEC50, R2/R3 U2OS cells expressing Gα15

Row | EC50 [1, 3] [µM] | EC50 [1, 4] [µM] | ΔlogR DMR Mean [1] | Activity in DMR assay Emax [1] | ΔlogR FLIPR Mean [2] | Activity in FLIPR assay Emax ([2]; Gα15) | EC50 [2, 5] [µM] | EC50 [2, 6] [µM] | ΔΔlogR Mean [2] | EC50 [2, 7] [µM] | EC50 [2, 8] [µM] | Bias factor [2] | response in the FLIPR assay, in words ([2]; R2/R3 U2OS cells transduced with Gα15) | leftward shift in the sucralose dose-response in the DMR assay ([1]; 25 μM SE-2, mean ± sd, n = 3) [fold] | enhancement factor of the sucralose dose-response in the FLIPR assay ([2]; 25 μM SE-2, Gα15, mean ± sd, n = 4) [fold] | SMILES | agonist activity on its own in the DMR assay, in words ([1]; 25 μM SE-2 at lower sucralose concentrations)
1 | – | – | −0.31 | 145 | −0.47 | 90**** | – | – | −0.16 | – | – | – | – | – | – | O=C1NS(=O)(=O)c2ccccc21 [Saccharin] | –
2 | 4.3 | 4.09 | 1.38 | 97** | 1.45 | 98** | – | 2.28 | 0.07 | – | – | – | – | – | – | C[C@H](NC(=Nc1ccc(C#N)cc1)NCC(=O)O)c1ccccc1 [SC-45647] | –
3 | 9.8 | 9.48 | 1.04 | 109 | 1.17 | 105 | 4.7 | 4.62 | 0.13 | – | – | – | – | – | – | COC(=O)[C@H](Cc1ccccc1)NC(=O)[C@H](CC(=O)O)NC(=O)Nc1ccc(C#N)cc1 [Superaspartame] | –
4 | 1220 | 906 | −0.99 | 122 | −0.74 | 73**** | 253 | 251 | – | – | – | 1.8 | – | – | – | CC1=CC(=O)NS(=O)(=O)O1 [acesulfame K] | –

Continued, compound first:

Row | SMILES | EC50 [1, 3] [µM] | EC50 [1, 4] [µM] | ΔlogR DMR Mean [1] | Activity in DMR assay Emax [1] | ΔlogR FLIPR Mean [2] | Activity in FLIPR assay Emax ([2]; Gα15) | EC50 [2, 5] [µM] | EC50 [2, 6] [µM] | ΔΔlogR Mean [2] | EC50 [2, 7] [µM] | EC50 [2, 8] [µM] | Bias factor [2] | response in the FLIPR assay, in words ([2]; R2/R3 U2OS cells transduced with Gα15) | leftward shift in the sucralose dose-response in the DMR assay ([1]; 25 μM SE-2, mean ± sd, n = 3) [fold] | enhancement factor of the sucralose dose-response in the FLIPR assay ([2]; 25 μM SE-2, Gα15, mean ± sd, n = 4) [fold] | agonist activity on its own in the DMR assay, in words ([1]; 25 μM SE-2 at lower sucralose concentrations)
5 | COC(=O)[C@H](Cc1ccccc1)NC(=O)[C@@H](N)CC(=O)O [Aspartame] (H-Asp-Phe-OMe) | 910 | 771 | −0.72 | 143 | −0.74 | 106 | 354 | 352 | −0.03 | – | – | – | – | – | – | –
6 | C[C@@H](NC(=O)[C@@H](N)CC(=O)O)C(=O)NC1C(C)(C)SC1(C)C [Alitame] | 37 | 32.5 | 0.35 | 106 | 0.52 | 100 | – | – | 0.18 | 20 | 19.4 | 1.5 | – | – | – | –
7 | C=C1C[C@@]23CC[C@H]4[C@@](C)(CCC[C@@]4(C)C(=O)O[C@@H]4O[C@H](CO)[C@@H](O)[C@H](O)[C@H]4O)[C@@H]2CC[C@]1(O[C@@H]1O[C@H](CO)[C@@H](O)[C@H](O)[C@H]1O[C@@H]1O[C@H](CO)[C@@H](O)[C@H](O)[C@H]1O)C3 [Stevioside] | 127 | 114 | 0.09 | 141 | 0.13 | 102 | – | – | 0.04 | 51 | 50.1 | – | – | – | – | –
8 | CCOc1ccc(NC(N)=O)cc1 [Dulcin] | 33 | 30.7 | 0.20 | 57**** | 0.38 | 87**** | – | 23.1 | 0.18 | – | – | – | – | – | – | –
9 | O=C(CO)[C@@H](O)[C@H](O)[C@H](O)CO [D-fructose] | – | – | – | – | – | – | – | – | – | – | – | – | readily detected | – | – | –
10 | Cc1sc2[nH]c(=O)nc(N)c2c1C [SE-2] | – | – | – | – | – | – | – | – | – | – | – | – | – | 5.1 ± 1.5 | 7.3 ± 0.9 | did not produce any agonist activity on its own
11 | CCCOc1ccc([N+](=O)[O-])cc1N [P-4000] | – | 3.78 | 1.31 | 102 | 1.67 | 164**** | 2.2 | 2.12 | 0.36 | – | – | – | – | – | – | –
